In US20120034250A1, “CONDENSED PYRROLOPYRIDINE DERIVATIVE” (Astellas Pharma Inc., priority 2009, published 2012):

Key:
human JAK1 kinase domain = target: T1, human JAK1 kinase domain (Homo sapiens, UniProt P23458); experiment: JAK inhibition test: measurement of JAK1 activity; assay type: biochemical; conditions: 500 μM ATP, absorbance at 450 nm
T1 construct: attached to the N-terminal of the 850 to 1154 (C-terminal) fragment of the human JAK1 protein; GST (N); purchased Carna Biosciences, Inc. (Kobe, Japan); host or cells: baculovirus expression system
Source text: (1) Preparation of Human JAK1
A purified human JAK1 kinase domain was purchased from Carna Biosciences, Inc. (Kobe, Japan). This was obtained as follows. A GST tag (62 kDa) was attached to the N-terminal of the 850 to 1154 (C-terminal) fragment of the human JAK1 protein (accession number #BAD92294.1), expressed using a baculovirus expression system, and then purified using Glutathion Sepharose chromatography.
(2) Measurement of JAK 1 Activity
(§1) As substrates, Biotin-Lyn-Substrate-2 (Biotin-XEQED EPEGF YFEWL EPE, X=ε−Acp (Peptide Institute, Inc., Osaka, Japan) and ATP were used. As an assay buffer, 15 mM Tris-HCl pH 7.5 containing 0.01% Tween 20 and 2 mM DTT was used. Normally, 20 μL of a substrate solution (an assay buffer containing 627 nM Biotin-Lyn-Substrate-2, 500 μM ATP, and 25 mM MgCl2), an assay buffer containing 10 μL of a test compound, and 20 μL of an enzyme solution were added to a microplate, and stirred sufficiently.
(§2) After incubation at room temperature for 1 hour, the plate was washed with a cleaning buffer (50 mM Tris-HCl pH 7.5, 150 mM NaCl, 0.02% Tween 20), and a blocking buffer (a cleaning buffer containing 0.1% bovine serum albumin) was added to the plate. After incubation at room temperature for 30 minutes, the blocking buffer was removed, and an HRP-PY-20 solution (obtained by diluting HRP-PY-20 solution with the blocking buffer 500 times) was added. After incubation at room temperature for 30 minutes, the plate was washed four times, and a TMB substrate solution (Sigma) was added to the plate. After incubation at room temperature for 4 minutes, 1 M sulfuric acid was added to stop the reaction. Enzyme activity was measured with an absorbance at 450 nm. The JAK1 inhibitory activity of the test compound was calculated by taking the concentration of the test compound which inhibits the JAK1 activity by 50% as an IC50 value.

human JAK2 kinase domain = target: T2, human JAK2 kinase domain (Homo sapiens, UniProt O60674); experiment: JAK inhibition test: measurement of JAK2 activity; assay type: biochemical; conditions: 25 μM ATP, absorbance at 450 nm
T2 construct: attached to the N-terminal of the 826 to 1132 (C-terminal) fragment of the human JAK2 protein; His tag (N); purchased Carna Biosciences, Inc. (Kobe, Japan); host or cells: baculovirus expression system
Source text: (3) Preparation of Human JAK2
(§3) A purified human JAK2 kinase domain was purchased from Carna Biosciences, Inc. (Kobe, Japan). This was obtained as follows. A His tag (39 kDa) was attached to the N-terminal of the 826 to 1132 (C-terminal) fragment of the human JAK2 protein (accession number #NP_004963.1), expressed using a baculovirus expression system, and then purified using Ni-NTA affinity column chromatography.
(4) Measurement of JAK2 Activity
as §1, with “25” for “500”
as §2, with “JAK2” for “JAK1”

human JAK3 kinase domain = target: T3, human JAK3 kinase domain (Homo sapiens, UniProt P52333); experiment: JAK inhibition test: measurement of JAK3 activity; assay type: biochemical; conditions: 20 μM ATP, absorbance at 450 nm
T3 construct: attached to the N-terminal of the 796 to 1124 (C-terminal) fragment of the human JAK3 protein; His tag (N); purchased Carna Biosciences, Inc. (Kobe, Japan); host or cells: baculovirus expression system
Source text: (5) Preparation of Human JAK3
as §3, with “JAK3” for “JAK2”, “(41” for “(39”, “796” for “826”, “1124” for “1132”, “#NM_000215),” for “#NP_004963.1),”
(6) Measurement of JAK3 Activity
as §1, with “20” for “500”, “solution” for “solution were added to a microplate, and stirred sufficiently.”
as §2, with “JAK3” for “JAK1”

[1] = system: stat5 phosphorylation of CD3+lymphocytes in the blood; experiment: Measurement of PD activity (stat5 phosphorylation in blood after oral dosing); assay type: in vivo, rat; conditions: 20 mg/kg orally to normal rats, blood collected 4 hours later, cytokine stimulation, FACS
Procedure: Measurement of PD activity was carried out by evaluating the degree of stat5 phosphorylation of CD3+lymphocytes in the blood.
Compounds at (20 mg/kg) were orally administered to normal rats, and 4 hours later, 200 μL of blood was collected therefrom. For phosphorylation of stat5, stimulating cytokines (IL-2, 7, 15, etc., Peprotec) were added thereto, and CD3 antibodies fluorescently labeled (BD pharmingen) was added at a dose of 1/20, followed by incubation at 37° C. 5 mL of a lysing buffer (BD Pharmingen) was added to stop the reaction, and then washed by the addition of PBS (−) (Phosphate Buffered Saline (−), manufactured by Shin Yang Chemical Industries, Ltd.). 300 μL of a permeabilization buffer (BD Pharmingen) was added thereto, followed by immobilization on ice. The resultant was washed with a FACS buffer, and then fluorescently-labeled phosphorylation stat5 antibodies (BD Pharmingen) were added thereto, followed by further incubation at room temperature. After incubation, the cells were washed with a FACS buffer, insoluble materials were removed through a filter. Fluorescence measurement was carried out using a FACScalibur. For an individual of each rat, a sample with addition of cytokine and a sample without addition of cytokine were prepared, and a difference of the respective average fluorescence intensities (AMFI) was determined. As a control, the blood of rats to which the compound had not been administered was used, and an inhibitory rate was calculated from the average fluorescence intensity of the respective group of the samples to which the compound had been added, relative to the average fluorescence intensity of the control sample (Inhibitory Rate (%)=100*(1−(ΔMFI of Sample)/(ΔMFI of Control)).

[2] = system: heart transplantation rejection; experiment: Rat heart transplantation (heterotopic, ACI donor to Lewis recipient); assay type: in vivo; conditions: 20 mg/kg orally once daily for 14 days from transplantation, observed 29 days
Procedure: Heterotopic heart transplantation into the rat abdomen was performed in accordance with reference materials. With regard to the animals, ACI-based male rats were used as donors and Lewis-based male rats were used as recipients. In addition, Lewis rats were fasted the day before the transplant. The test drugs were orally administered at a dose of 20 mg/kg once daily for 14 days from the date of transplantation. For determining the heart transplantation rejection, the heart transplantation was observed daily by palpation for 29 days after transplantation, and stoppage of beating was taken as rejection. The survival period in days was counted until the day before rejection. From the survival period in days, a value of MST (Median Survival Time) was determined.

T3 sequence (P52333 796-1124): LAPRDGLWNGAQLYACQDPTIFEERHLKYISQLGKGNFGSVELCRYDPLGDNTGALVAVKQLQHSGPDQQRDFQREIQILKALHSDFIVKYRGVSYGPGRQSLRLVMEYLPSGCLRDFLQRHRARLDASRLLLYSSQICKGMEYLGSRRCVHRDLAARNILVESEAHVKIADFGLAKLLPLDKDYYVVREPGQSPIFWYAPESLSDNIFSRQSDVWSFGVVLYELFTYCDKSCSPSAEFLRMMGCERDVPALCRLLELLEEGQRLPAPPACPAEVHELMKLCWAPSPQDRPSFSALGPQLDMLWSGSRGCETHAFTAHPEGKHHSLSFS
T2 sequence (O60674 826-1132): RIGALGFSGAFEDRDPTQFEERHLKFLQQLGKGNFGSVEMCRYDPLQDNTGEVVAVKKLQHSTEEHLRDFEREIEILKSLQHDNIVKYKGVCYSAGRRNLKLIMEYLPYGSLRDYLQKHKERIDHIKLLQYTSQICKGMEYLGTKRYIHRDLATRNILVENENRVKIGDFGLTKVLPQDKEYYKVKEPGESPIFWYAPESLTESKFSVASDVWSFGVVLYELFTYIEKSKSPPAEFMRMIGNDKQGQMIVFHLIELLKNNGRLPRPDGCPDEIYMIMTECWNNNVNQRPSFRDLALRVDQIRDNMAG
T1 sequence (P23458 850-1154): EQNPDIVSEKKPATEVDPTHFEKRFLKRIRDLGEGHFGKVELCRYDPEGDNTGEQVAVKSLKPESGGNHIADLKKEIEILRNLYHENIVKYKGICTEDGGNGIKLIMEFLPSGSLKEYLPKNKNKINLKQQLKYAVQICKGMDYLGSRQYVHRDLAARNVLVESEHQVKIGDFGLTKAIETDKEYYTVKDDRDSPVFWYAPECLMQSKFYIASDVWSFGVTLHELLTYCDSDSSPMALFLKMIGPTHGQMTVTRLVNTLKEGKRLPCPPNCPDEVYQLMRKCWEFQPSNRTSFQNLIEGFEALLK

SMILES	IC50 (human JAK1 kinase domain)	IC50 (human JAK2 kinase domain)	IC50 (human JAK3 kinase domain)	melting point	Inhibition Ratio (stat5 phosphorylation) [1]	MST (Median Survival Time) [2]
Cc1cc2cnc3[nH]ccc3c2n1[C@H]1CN(C(=O)CC#N)CC[C@H]1C (racemic) [Example 2-74]					98%	
C[C@@H]1CCN(C(=O)CC#N)C[C@@H]1n1ccc2cnc3[nH]ccc3c21 [Example 2-10]	0.49 nM	0.35 nM	0.19 nM			17 days
C[C@@H]1CCN(C(=O)CC#N)C[C@@H]1n1ccc2cnc3[nH]ccc3c21 (racemic) [Example 2-7]					95%	>28 days
Cc1nnnn1CC(=O)N1CC[C@@H](C)[C@@H](n2ccc3cnc4[nH]ccc4c32)C1 (racemic) [Example 2-15]	4.7 nM	2.9 nM	1.3 nM			
C[C@@H]1CCN(S(=O)(=O)N(C)CC#N)C[C@@H]1n1ccc2cnc3[nH]ccc3c21 (racemic) [Example 9-3]					62%	
O[C@]12CC3C[C@H](C1)[C@H](n1ccc4cnc5[nH]ccc5c41)[C@@H](C3)C2 [Example 1, (1S,3R,4R,5s)-4-(dipyrrolo[2,3-b:2′,3′-d]pyridin-1(6H)-yl)adamantan-1-ol]	6.1 nM	1.6 nM	1 nM			
C[C@@H]1CCN(c2cnc(C#N)cn2)C[C@@H]1n1ccc2cnc3[nH]ccc3c21 (racemic) [Example 4-1]	7.9 nM	3 nM	0.88 nM			
C[C@@H]1CCN(c2ccc(C#N)cn2)C[C@@H]1n1ccc2cnc3[nH]ccc3c21 (racemic) [Example 4]	16 nM	3.5 nM	1.1 nM			

Continued, in another order:

IC50 (human JAK1 kinase domain)	IC50 (human JAK2 kinase domain)	IC50 (human JAK3 kinase domain)	melting point	SMILES	Inhibition Ratio (stat5 phosphorylation) [1]	MST (Median Survival Time) [2]
1.1 nM	0.6 nM	0.3 nM		C[C@@H]1CCN(C(=O)CC#N)C[C@@H]1n1cc(Br)c2cnc3[nH]ccc3c21 (racemic) [Example 2-5]	86%	
3 nM	0.89 nM	0.61 nM		C[C@@H]1CCN(C(=O)N(C)CC#N)C[C@@H]1n1ccc2cnc3[nH]ccc3c21 (racemic) [Example 5-1]		
3.2 nM	1.4 nM	0.11 nM	288 to 290 °C (dec.)	C[C@@H]1CCN(C(=O)CC#N)C[C@@H]1n1ccc2cnc3[nH]cc(C#N)c3c21 [Example 2-19]		
0.76 nM	0.53 nM	0.41 nM		C[C@@H]1CCN(C(=O)CC#N)C[C@@H]1n1cc(-c2ccncc2)c2cnc3[nH]cc(C#N)c3c21 (racemic) [Example 2-17]		
			286 to 290 °C (dec.)	C[C@H]1CCN(C(=O)CC#N)C[C@H]1n1ccc2cnc3[nH]cc(C#N)c3c21 [Example 2-18]		
6.8 nM	1 nM	0.26 nM		C[C@@H]1CCN(C(=O)CC#N)C[C@@H]1n1ccc2cnc3[nH]cc(Br)c3c21 (racemic) [Example 2-4]		
3.1 nM	2.5 nM	0.52 nM		C[C@@H]1CCN(C(=O)Cn2cnnn2)C[C@@H]1n1ccc2cnc3[nH]ccc3c21 (racemic) [Example 2-14]		
6.9 nM	2.5 nM	0.27 nM		C[C@@H]1CCN(C(=O)CC#N)C[C@@H]1n1cc(Br)c2cnc3[nH]cc(C#N)c3c21 (racemic) [Example 2-2]		
